Assay results from patent publication US10561655B2 (SYNBLia Therapeutics, Inc., priority 2018, dated 2020).
Read-outs that look alike come from different tables or passages of the source.

Tests used:
Full length SHP2 enzyme = Full length SHP2 enzyme (Homo sapiens (Human), UniProt Q06124); test: SHP2 Phosphatase Assays; type: biochemical; conditions: full length SHP2 0.1 nM, 1 uM IRS-1 peptide, DiFMUP substrate, room temperature
Description: IC50 values were determined at room temperature in 384-well black polystyrene plate, using a final reaction volume of 15 μl and the following assay buffer conditions: 60 mM Hepes (pH=7.2), 75 mM NaCl, 75 mM KCl, and 1 mM EDTA, 0.05% P-20, 5 mM dithiothreitol (DTT). Full length SHP2 enzyme (diluted to 0.1 nM in reaction buffer) were co-incubated with 1 uM IRS-1 peptide and 0.01 nM to 10 μM compounds of the disclosure for 60 min. The surrogate substrate DiFMUP (5 μL, […]) was added, and incubated at rt for 60 min. The reaction was then quenched by the addition of 5 μL of a 40 μM solution of bpV(Phen). The fluorescence signal was monitored using a microplate reader (Envision, Perkin-Elmer) using excitation and emission wavelengths of 360 nm and 450 nm, respectively. The inhibitor dose-response curves were analyzed using normalized IC50 regression curve fitting with control-based normalization.

p-ERK/total ERK = p-ERK/total ERK Cellular Assay; type: cell-based
Description: p-ERK/total ERK Cellular Assay
Cells were seeded in 384-well cell culture plate and incubated overnight. Test compounds were added to the cell plate and the plate was incubated for 2-6 hours. To detect p-ERK, the cell plate was used AlphaLISA SureFire Ultra p-ERK kit; to detect total ERK, the cell plate was used total ERK HTRF kit. The plate was read on the Envision.

cells = test: Cell Proliferation Assay (CellTiter Glo); type: cell-based
Description: Firstly, the cells were seeded in 384-well cell culture plate and incubate overnight. The test compounds were added to the cell plate and incubated for 3-5 days. The cell plate was then detected using CellTiter Glo reagents.

[1] = p-ERK (AlphaLISA SureFire Ultra) / total ERK (HTRF), 2-6 hours incubation, read-out: IC50
[2] = 3-5 days incubation, CellTiter Glo, read-out: IC50

Full length SHP2 enzyme, sequence (Q06124 whole entry): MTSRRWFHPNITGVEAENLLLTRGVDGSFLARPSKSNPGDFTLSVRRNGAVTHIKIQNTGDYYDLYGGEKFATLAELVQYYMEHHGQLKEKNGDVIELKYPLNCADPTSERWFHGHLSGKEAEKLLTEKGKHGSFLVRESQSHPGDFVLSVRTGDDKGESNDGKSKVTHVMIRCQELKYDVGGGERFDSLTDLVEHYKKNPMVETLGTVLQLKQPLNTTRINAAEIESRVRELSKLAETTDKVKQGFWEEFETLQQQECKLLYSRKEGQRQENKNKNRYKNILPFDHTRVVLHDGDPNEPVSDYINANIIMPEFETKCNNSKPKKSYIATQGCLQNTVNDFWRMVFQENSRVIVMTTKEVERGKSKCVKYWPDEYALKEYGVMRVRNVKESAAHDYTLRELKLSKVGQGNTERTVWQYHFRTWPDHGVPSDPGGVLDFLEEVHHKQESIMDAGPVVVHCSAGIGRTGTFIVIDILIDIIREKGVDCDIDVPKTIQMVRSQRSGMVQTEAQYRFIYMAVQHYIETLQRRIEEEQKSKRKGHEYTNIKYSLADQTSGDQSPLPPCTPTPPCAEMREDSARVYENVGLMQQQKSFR

| Structure (SMILES) | IC50 (Full length SHP2 enzyme) [nM] | IC50 (p-ERK/total ERK; [1]) [nM] | IC50 (cells; [2]) [nM] | IC50 (p-ERK/total ERK) [nM] | IC50 (cells) [nM] |
| --- | --- | --- | --- | --- | --- |
| C[C@@H]1OCC2(CCN(c3ncc(Sc4cccc(Cl)c4Cl)[nH]c3=O)CC2)[C@@H]1N [Compound 14] | ≤ 50 | < 100 | < 1000 | – | – |
| CC1(CN)CCN(c2nc3[nH]nc(Oc4cccc(Cl)c4Cl)c3c(=O)[nH]2)CC1 [Compound 35, 6-(4-(aminomethyl)-4-methylpiperidin-1-yl)-3-(2,3-dichlorophenoxy)-1,5-dihydro-4H-pyrazolo[3,4-d]pyrimidin-4-one] | ≤ 50 | < 500 | – | – | – |
| N[C@@H]1c2ccccc2OC12CCN(c1ncc(Sc3cccc(Cl)c3Cl)[nH]c1=O)CC2 [Compound 87, (R)-3-(3-amino-3H-spiro[benzofuran-2,4′-piperidin]-1′-yl)-6-((2,3-dichlorophenyl)thio)pyrazin-2(1H)-one] | ≤ 50 | – | – | – | – |
| N[C@@H]1COCC12CCN(c1ncc(Sc3cccc(Cl)c3Cl)[nH]c1=O)CC2 [Compound 73, (S)-3-(4-amino-2-oxa-8-azaspiro[4.5]decan-8-yl)-6-((2,3-dichlorophenyl)thio)pyrazin-2(1H)-one] | ≤ 50 | < 100 | < 5000 | – | – |
| C[C@@H]1OCC2(CCN(c3ncc(Sc4ccnc(Cl)c4Cl)[nH]c3=O)CC2)[C@@H]1N [Compound 81, 3-((3S,4S)-4-amino-3-methyl-2-oxa-8-azaspiro[4.5]decan-8-yl)-6-((2,3-dichloropyridin-4-yl)thio)pyrazin-2(1H)-one] | ≤ 50 | < 100 | < 1000 | – | – |
| CC1(CN)CCN(c2ncc(Sc3cccc(NC(=O)c4c(O)nc5[nH]ccn5c4=O)c3Cl)[nH]c2=O)CC1 [Compound 32, N-(3-((5-(4-(aminomethyl)-4-methylpiperidin-1-yl)-6-oxo-1,6-dihydropyrazin-2-yl)thio)-2-chlorophenyl)-7-hydroxy-5-oxo-1,5-dihydroimidazo[1,2-a]pyrimidine-6-carboxamide] | ≤ 50 | – | – | – | – |
| C[C@@H]1OCC2(CCN(c3ncc(Sc4ccnc(F)c4F)[nH]c3=O)CC2)[C@@H]1N [Compound 84] | ≤ 50 | < 100 | < 1000 | – | – |
| NC1C2CC2CC12CCN(c1ncc(Sc3cccc(Cl)c3Cl)[nH]c1=O)CC2 (centres unmarked) [Compound 13, 3-(2-aminospiro[bicyclo[3.1.0]hexane-3,4′-piperidin]-1′-yl)-6-((2,3-dichlorophenyl)thio)pyrazin-2(1H)-one] | ≤ 50 | – | – | – | – |
| NC1COCC12CCN(c1ncc(Sc3cccc(Cl)c3Cl)[nH]c1=O)CC2 (centres unmarked) [Compound 10, 3-(4-amino-2-oxa-8-azaspiro[4.5]decan-8-yl)-6-((2,3-dichlorophenyl)thio)pyrazin-2(1H)-one] | – | – | – | < 100 | < 5000 |
| N[C@@H]1c2ccccc2CC12CCN(c1ncc(Sc3cccc(Cl)c3Cl)[nH]c1=O)CC2 [Compound 108, (S)-3-(1-amino-1,3-dihydrospiro[indene-2,4′-piperidin]-1′-yl)-6-((2,3-dichlorophenyl)thio)pyrazin-2(1H)-one] | ≤ 50 | – | – | – | – |
| COc1nccc(Sc2cnc(N3CCC4(CC3)CO[C@@H](C)[C@H]4N)c(=O)[nH]2)c1Cl [Compound 80, 3-((3S,4S)-4-amino-3-methyl-2-oxa-8-azaspiro[4.5]decan-8-yl)-6-((3-chloro-2-methoxypyridin-4-yl)thio)pyrazin-2(1H)-one] | ≤ 50 | < 100 | – | – | – |
| Cn1c(N2CCC(C)(CN)C2)nc(N)c(Sc2cccc(Cl)c2Cl)c1=O (centres unmarked) [Compound 52, 6-amino-2-(3-(aminomethyl)-3-methylpyrrolidin-1-yl)-5-((2,3-dichlorophenyl)thio)-3-methylpyrimidin-4(3H)-one] | ≤ 50 | – | – | – | – |
| CC1(CN)CCN(c2ncc(Sc3cccc(NC(=O)c4c(O)nc5n(c4=O)CCCC5)c3Cl)[nH]c2=O)CC1 [Compound 33, N-(3-((5-(4-(aminomethyl)-4-methylpiperidin-1-yl)-6-oxo-1,6-dihydropyrazin-2-yl)thio)-2-chlorophenyl)-2-hydroxy-4-oxo-6,7,8,9-tetrahydro-4H-pyrido[1,2-a]pyrimidine-3-carboxamide] | ≤ 50 | < 100 | – | – | – |
| CC1(CN)CCN(c2ncc(Sc3cccc(NC(=O)c4c(O)nc5cnccn5c4=O)c3Cl)[nH]c2=O)CC1 [Compound 30, N-(3-((5-(4-(aminomethyl)-4-methylpiperidin-1-yl)-6-oxo-1,6-dihydropyrazin-2-yl)thio)-2-chlorophenyl)-2-hydroxy-4-oxo-4H-pyrazino[1,2-a]pyrimidine-3-carboxamide] | – | < 100 | – | – | – |
| CC1(CN)CCN(c2ncc(Sc3cccc(Cl)c3Cl)[nH]c2=O)CC1 [Compound 2, 3-(4-(aminomethyl)-4-methylpiperidin-1-yl)-6-((2,3-dichlorophenyl)thio)pyrazin-2(1H)-one] | ≤ 50 | – | – | < 500 | < 5000 |
| C[C@@H]1OCC2(CCN(c3ncc(Sc4cc[nH]c(=O)c4Cl)[nH]c3=O)CC2)[C@@H]1N [Compound 107, 3-((3S,4S)-4-amino-3-methyl-2-oxa-8-azaspiro[4.5]decan-8-yl)-6-((3-chloro-2-oxo-1,2-dihydropyridin-4-yl)thio)pyrazin-2(1H)-one] | ≤ 50 | – | – | – | – |
| NC1C2CN(c3ncc(Sc4cccc(Cl)c4Cl)[nH]c3=O)CC12 (centres unmarked) [Compound 86, 3-(6-amino-3-azabicyclo[3.1.0]hexan-3-yl)-6-((2,3-dichlorophenyl)thio)pyrazin-2(1H)-one] | ≤ 50 | – | – | – | – |
| N[C@@H]1COCC12CCN(c1ncc(Sc3ccnc(Cl)c3Cl)[nH]c1=O)CC2 [Compound 88, (S)-3-(4-amino-2-oxa-8-azaspiro[4.5]decan-8-yl)-6-((2,3-dichloropyridin-4-yl)thio)pyrazin-2(1H)-one] | ≤ 50 | – | – | – | – |
| C[C@@H]1OCC2(CCN(c3ncc(Sc4cccc(F)c4F)[nH]c3=O)CC2)[C@@H]1N [Compound 82, 3-((3S,4S)-4-amino-3-methyl-2-oxa-8-azaspiro[4.5]decan-8-yl)-6-((2,3-difluorophenyl)thio)pyrazin-2(1H)-one] | ≤ 50 | < 100 | < 5000 | – | – |
| NC1CCCC(n2ccc(-c3cccc(Cl)c3Cl)cc2=O)C1 (centres unmarked) [Compound 74, 1-(3-aminocyclohexyl)-4-(2,3-dichlorophenyl)pyridin-2(1H)-one] | ≤ 50 | – | – | – | – |
| C[C@@H]1OCC2(CCN(c3ncc(Sc4cccc(F)c4Cl)[nH]c3=O)CC2)[C@@H]1N [Compound 109, 3-((3S,4S)-4-amino-3-methyl-2-oxa-8-azaspiro[4.5]decan-8-yl)-6-((2-chloro-3-fluorophenyl)thio)pyrazin-2(1H)-one] | ≤ 50 | < 100 | < 5000 | – | – |
| C[C@@H]1OCC2(CCN(c3ncc(Sc4ccnc(F)c4Cl)[nH]c3=O)CC2)[C@@H]1N [Compound 83, 3-((3S,4S)-4-amino-3-methyl-2-oxa-8-azaspiro[4.5]decan-8-yl)-6-((3-chloro-2-fluoropyridin-4-yl)thio)pyrazin-2(1H)-one] | ≤ 50 | < 100 | < 1000 | – | – |
| CC1(CN)CCN(c2ncc(Sc3cccc(NC(=O)c4c(O)nc5sccn5c4=O)c3Cl)[nH]c2=O)CC1 [Compound 31, N-(3-((5-(4-(aminomethyl)-4-methylpiperidin-1-yl)-6-oxo-1,6-dihydropyrazin-2-yl)thio)-2-chlorophenyl)-7-hydroxy-5-oxo-5H-thiazolo[3,2-a]pyrimidine-6-carboxamide] | ≤ 50 | < 100 | < 5000 | – | – |
| C[C@@H]1OCC2(CCN(c3ncc(Sc4ccnc(N)c4Cl)[nH]c3=O)CC2)[C@@H]1N [Compound 77, 6-((2-amino-3-chloropyridin-4-yl)thio)-3-((3S,4S)-4-amino-3-methyl-2-oxa-8-azaspiro[4.5]decan-8-yl)pyrazin-2(1H)-one] | ≤ 50 | – | – | – | – |
| CC1(CN)CCN(c2ncc(Sc3cccc(NC(=O)c4c(O)nc5ccccn5c4=O)c3Cl)[nH]c2=O)CC1 [Compound 29, N-(3-((5-(4-(aminomethyl)-4-methylpiperidin-1-yl)-6-oxo-1,6-dihydropyrazin-2-yl)thio)-2-chlorophenyl)-2-hydroxy-4-oxo-4H-pyrido[1,2-a]pyrimidine-3-carboxamide] | ≤ 50 | < 100 | < 5000 | – | – |
| COc1cccc(Sc2cnc(N3CCC4(CC3)CO[C@@H](C)[C@H]4N)c(=O)[nH]2)c1Cl [Compound 79, 3-((3S,4S)-4-amino-3-methyl-2-oxa-8-azaspiro[4.5]decan-8-yl)-6-((2-chloro-3-methoxyphenyl)thio)pyrazin-2(1H)-one] | ≤ 50 | < 100 | – | – | – |
| CC1(CN)CCN(c2nc3[nH]nc(Nc4cccc(Cl)c4Cl)c3c(=O)[nH]2)CC1 [Compound 34, 6-(4-(aminomethyl)-4-methylpiperidin-1-yl)-3-((2,3-dichlorophenyl)amino)-1,5-dihydro-4H-pyrazolo[3,4-d]pyrimidin-4-one] | ≤ 50 | < 500 | – | – | – |
